# Reference: patent US20120053200A1, “BACE 2 INHIBITORS” (priority 2010, published 2012)
# Biological target: T1, BACE2 (Rattus norvegicus, UniProt Q6IE75)
# T1 construct: endogenous cellular BACE2 in the Ins1e rat cell line; endogenous in cells; host or cells: INS-TMEM27 (INS1e-derived rat beta-cell line with doxycycline-inducible full-length hTMEM27)
# T1 sequence (Q6IE75 63-514): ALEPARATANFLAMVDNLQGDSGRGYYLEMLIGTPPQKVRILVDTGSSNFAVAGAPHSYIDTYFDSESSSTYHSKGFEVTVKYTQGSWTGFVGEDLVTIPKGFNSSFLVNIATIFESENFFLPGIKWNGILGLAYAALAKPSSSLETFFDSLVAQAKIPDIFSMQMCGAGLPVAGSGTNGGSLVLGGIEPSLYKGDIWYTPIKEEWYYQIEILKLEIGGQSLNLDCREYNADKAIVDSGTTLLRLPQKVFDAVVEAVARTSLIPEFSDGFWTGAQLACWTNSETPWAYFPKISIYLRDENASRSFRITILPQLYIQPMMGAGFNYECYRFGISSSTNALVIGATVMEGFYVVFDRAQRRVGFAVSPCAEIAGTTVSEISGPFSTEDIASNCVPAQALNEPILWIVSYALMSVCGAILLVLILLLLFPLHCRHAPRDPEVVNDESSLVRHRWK
# Test: Assay for BACE inhibition by measuring cellular TMEM27 cleavage (INS-TMEM27 cells, ELISA of shed TMEM27)
# Assay type: cell-based
# Settings: inhibition of human TMEM27 cleavage by endogenous cellular BACE2 in INS1e-derived INS-TMEM27 rat cell line; ELISA of shed TMEM27 in supernatant
# Excerpt: Assay for […] Inhibition by Measuring Cellular TMEM27 Cleavage
# This assay uses the principle of inhibition of human TMEM27 cleavage by endogenous cellular BACE2 in the Ins1e rat cell line and shedding from the cell surface into the culture medium, followed by detection in an ELISA assay. Inhibition of BACE2 prevents the cleavage and shedding in a dose-dependent manner.
# The stable cell line “INS-TMEM27” represents an INS1e-derived cell line with inducible expression (using the TetOn system) of full-length hTMEM27 in a doxycycline-dependent manner. The cells were cultured throughout the experiment in RPMI1640+Glutamax (Invitrogen) Penicillin/Streptomycin, 10% Fetal bovine serum, 100 mM pyruvate, […] beta-mercatptoethanol, 100 micrograms/ml G418 and 100 microgram/ml hygromycin and were grown in adherent culture at 37° C. in a standard CO2 cell culture incubator.
# INS-TMEM27 cells were seeded in 96-well plates. After 2 days in culture, BACE2 inhibitor was added in a range of concentrations as required by the assay and after a further two hours, doxycycline was added to a final concentration of 500 ng/ml. The cells were incubated for a further 46 hours and the supernatant harvested for detection of shed TMEM27.
# An ELISA assay (using a pair of mouse anti-human-TMEM27 antibodies, raised against the extracellular domain of TMEM27) was used for detection of TMEM27 in the culture medium. An IC50 for BACE2 inhibition was calculated using the ELISA readout for each inhibitor concentration with standard curve-fitting software.
# The inhibitory activity, given as an IC50 value, of the compounds of Examples 1 to 32 and 34 to 74 were as follows.
row,IC50 [nM],Compound
1,57.7,"CCn1cc(CNC[C@@H](O)[C@H](Cc2ccccc2)NC(=O)c2cccc(C(=O)N3CCCC3c3ccccc3)c2)cn1 (stereo partly drawn) [Example 23, N-{(1S,2R)-1-Benzyl-3-[(1-ethyl-1H-pyrazol-4-ylmethyl)-amino]-2-hydroxy-propyl}-3-(2-phenyl-pyrrolidine-1-carbonyl)-benzamide]"
2,68,"O=C(N[C@@H](Cc1ccccc1)[C@H](O)CNCc1cccc(OC(F)(F)F)c1)c1cccc(C(=O)N2CCCC2c2ccccc2)c1 (stereo partly drawn) [Example 24, N-[(1S,2R)-1-Benzyl-2-hydroxy-3-(3-trifluoromethoxy-benzylamino)-propyl]-3-(2-phenyl-pyrrolidine-1-carbonyl)-benzamide]"
3,70,"O=C(N[C@@H](Cc1ccccc1)[C@H](O)CNCc1cccc(OC(F)(F)F)c1)c1cccc(C(=O)N2CCCC2c2cccnc2)c1 (stereo partly drawn) [Example 25, N-[(1S,2R)-1-Benzyl-2-hydroxy-3-(3-trifluoromethoxy-benzylamino)-propyl]-3-(2-pyridin-3-yl-pyrrolidine-1-carbonyl)-benzamide]"
4,284,"Cc1cc(C2CCCN2C(=O)c2cccc(C(=O)N[C@@H](Cc3ccccc3)[C@H](O)CNCc3cccc(OC(F)(F)F)c3)c2)on1 (stereo partly drawn) [Example 26, N-[(1S,2R)-1-Benzyl-2-hydroxy-3-(3-trifluoromethoxy-benzylamino)-propyl]-3-[2-(3-methyl-isoxazol-5-yl)-pyrrolidine-1-carbonyl]-benzamide]"
5,314,"COc1cccc(CNC[C@@H](O)[C@H](Cc2ccccc2)NC(=O)c2cccc(C(=O)N3CCCC3c3ccc(C)s3)c2)c1 (stereo partly drawn) [Example 27, N-[(1S,2R)-1-Benzyl-2-hydroxy-3-(3-methoxy-benzylamino)-propyl]-3-[2-(5-methyl-thiophen-2-yl)-pyrrolidine-1-carbonyl]-benzamide]"
6,511,"COc1cccc(CNC[C@@H](O)[C@H](Cc2ccccc2)NC(=O)c2cccc(C(=O)N(C)Cc3ccccn3)c2)c1 [Example 28, N-[(1S,2R)-1-Benzyl-2-hydroxy-3-(3-methoxy-benzylamino)-propyl]-N′-methyl-N′-pyridin-2-ylmethyl-isophthalamide]"
7,112,"CN(Cc1ccccn1)C(=O)c1cccc(C(=O)N[C@@H](Cc2ccccc2)[C@H](O)CNCc2cccc(OC(F)(F)F)c2)c1 [Example 29, N-[(1S,2R)-1-Benzyl-2-hydroxy-3-(3-trifluoromethoxy-benzylamino)-propyl]-N′-methyl-N′-pyridin-2-ylmethyl-isophthalamide]"
8,16,"COc1cccc(CNC[C@@H](O)[C@H](Cc2ccccc2)NC(=O)c2cccc(C(=O)N3CCCC3c3cccs3)c2)c1 (stereo partly drawn) [Example 30, N-[(1S,2R)-1-Benzyl-2-hydroxy-3-(3-methoxy-benzylamino)-propyl]-3-(2-thiophen-2-yl-pyrrolidine-1-carbonyl)-benzamide]"
9,239,"CCn1cc(CNC[C@@H](O)[C@H](Cc2ccccc2)NC(=O)c2cccc(C(=O)N3CCCC3c3cccs3)c2)cn1 (stereo partly drawn) [Example 31, N-{(1S,2R)-1-Benzyl-3-[(1-ethyl-1H-pyrazol-4-ylmethyl)-amino]-2-hydroxy-propyl}-3-(2-thiophen-2-yl-pyrrolidine-1-carbonyl)-benzamide]"
10,138,"O=C(N[C@@H](Cc1ccccc1)[C@H](O)CNCc1cccc(OC(F)(F)F)c1)c1cccc(C(=O)N2CCCC2c2cccs2)c1 (stereo partly drawn) [Example 32, N-[(1S,2R)-1-Benzyl-2-hydroxy-3-(3-trifluoromethoxy-benzylamino)-propyl]-3-(2-thiophen-2-yl-pyrrolidine-1-carbonyl)-benzamide]"
11,145,"CCn1cc(CNC[C@@H](O)[C@H](Cc2ccccc2)NC(=O)c2cc(C)cc(C(=O)N3CCC[C@@H]3c3nc(C)cs3)c2)cn1 [Example 34, N-{(1S,2R)-1-Benzyl-3-[(1-ethyl-1H-pyrazol-4-ylmethyl)-amino]-2-hydroxy-propyl}-3-methyl-5-[(R)-2-(4-methyl-thiazol-2-yl)-pyrrolidine-1-carbonyl]-benzamide]"
12,0.2,"CCn1cc(CNC[C@@H](O)[C@H](Cc2ccccc2)NC(=O)c2cc(C(=O)N3CCCC3c3ccccc3)cc(N(C)S(C)(=O)=O)c2)cn1 (stereo partly drawn) [Example 35, N-{(1S,2R)-1-Benzyl-3-[(1-ethyl-1H-pyrazol-4-ylmethyl)-amino]-2-hydroxy-propyl}-3-(methanesulfonyl-methyl-amino)-5-(2-phenyl-pyrrolidine-1-carbonyl)-benzamide]"
13,1,"CCn1cc(CNC[C@@H](O)[C@H](Cc2ccccc2)NC(=O)c2cc(C)cc(C(=O)N3CCCC3c3ccccc3)c2)cn1 (stereo partly drawn) [Example 36, N-{(1S,2R)-1-Benzyl-3-[(1-ethyl-1H-pyrazol-4-ylmethyl)-amino]-2-hydroxy-propyl}-3-methyl-5-(2-phenyl-pyrrolidine-1-carbonyl)-benzamide]"
14,1,"CCn1cc(CNC[C@@H](O)[C@H](Cc2ccccc2)NC(=O)c2cc(C)cc(C(=O)N(C)Cc3ccccn3)c2)cn1 [Example 37, N-{(1S,2R)-1-Benzyl-3-[(1-ethyl-1H-pyrazol-4-ylmethyl)-amino]-2-hydroxy-propyl}-5,N′-dimethyl-N′-pyridin-2-ylmethyl-isophthalamide]"
15,0.3,"CCn1cc(CNC[C@@H](O)[C@H](Cc2ccccc2)NC(=O)c2cc(C(=O)N3CCCC3c3cccs3)cc(N(C)S(C)(=O)=O)c2)cn1 (stereo partly drawn) [Example 38, N-{(1S,2R)-1-Benzyl-3-[(1-ethyl-1H-pyrazol-4-ylmethyl)-amino]-2-hydroxy-propyl}-3-(methanesulfonyl-methyl-amino)-5-(2-thiophen-2-yl-pyrrolidine-1-carbonyl)-benzamide]"
16,1,"CCn1cc(CNC[C@@H](O)[C@H](Cc2ccccc2)NC(=O)c2cc(C)cc(C(=O)N3CCCC3c3cccs3)c2)cn1 (stereo partly drawn) [Example 39, N-{(1S,2R)-1-Benzyl-3-[(1-ethyl-1H-pyrazol-4-ylmethyl)-amino]-2-hydroxy-propyl}-3-methyl-5-(2-thiophen-2-yl-pyrrolidine-1-carbonyl)-benzamide]"
17,104,"CCn1cc(CNC[C@@H](O)[C@H](Cc2ccccc2)NC(=O)c2cc(C)cc(C(=O)N(C)Cc3nc(C)cs3)c2)cn1 [Example 40, N-{(1S,2R)-1-Benzyl-3-[(1-ethyl-1H-pyrazol-4-ylmethyl)-amino]-2-hydroxy-propyl}-5,N′-dimethyl-N′-(4-methyl-thiazol-2-ylmethyl)-isophthalamide]"
18,0.1,"Cc1csc([C@H]2CCCN2C(=O)c2cc(C(=O)N[C@@H](Cc3ccccc3)[C@H](O)CNCc3cccc(OC(F)(F)F)c3)cc(N(C)S(C)(=O)=O)c2)n1 [Example 41, N-[(1S,2R)-1-Benzyl-2-hydroxy-3-(3-trifluoromethoxy-benzylamino)-propyl]-3-(methanesulfonyl-methyl-amino)-5-[(R)-2-(4-methyl-thiazol-2-yl)-pyrrolidine-1-carbonyl]-benzamide]"
19,62,"CN(c1cc(C(=O)N[C@@H](Cc2ccccc2)[C@H](O)CNCc2cccc(OC(F)(F)F)c2)cc(C(=O)N2CCCC2c2ccccc2)c1)S(C)(=O)=O (stereo partly drawn) [Example 42, N-[(1S,2R)-1-Benzyl-2-hydroxy-3-(3-trifluoromethoxy-benzylamino)-propyl]-3-(methanesulfonyl-methyl-amino)-5-(2-phenyl-pyrrolidine-1-carbonyl)-benzamide]"
20,3,"Cc1cc(C(=O)N[C@@H](Cc2ccccc2)[C@H](O)CNCc2cccc(OC(F)(F)F)c2)cc(C(=O)N2CCCC2c2ccccc2)c1 (stereo partly drawn) [Example 43, N-[(1S,2R)-1-Benzyl-2-hydroxy-3-(3-trifluoromethoxy-benzylamino)-propyl]-3-methyl-5-(2-phenyl-pyrrolidine-1-carbonyl)-benzamide]"
21,49,"Cc1cc(C(=O)N[C@@H](Cc2ccccc2)[C@H](O)CNCc2cccc(OC(F)(F)F)c2)cc(C(=O)N(C)Cc2ccccn2)c1 [Example 44, N-[(1S,2R)-1-Benzyl-2-hydroxy-3-(3-trifluoromethoxy-benzylamino)-propyl]-5,N′-dimethyl-N′-pyridin-2-ylmethyl-isophthalamide]"
